Target: T1, Gag-Pol polyprotein [588-1027]/[588-1147] (Human immunodeficiency virus 1, UniProt P04585)
T1 construct: 588-1027; 588-1147
Assay: HIV-1 RT Assay
Details: pH 7.8; 37 °C

Structure (SMILES): CCC(c1ccccc1)c1cc(=O)[nH]c(SC2CCCC2)n1 (stereo unspecified) [2-(cyclopentylsulfanyl)-6-(1-phenylpropyl)-3,4-dihydropyrimidin-4-one]
- IC50: > 10 µM
